Results reported in patent publication US20250145665A1, “MACROCYCLIC PEPTIDES USEFUL AS MODULATORS OF TNF ALPHA” (Bristol-Myers Squibb Company, priority 2023, published 2025).
Read-outs that look alike come from different tables or passages of the source. Starred links: 1 amine or outer side, 2 acyl side, 3 side chain; linkers in the order of their positions; H or OH if unused. Positions of bridges follow the written chain, without caps; N, C: chain ends. Non-standard residues stand in square brackets, D forms with d. Residues, ends and D or L forms follow the SMILES beside them. ξ: configuration not given here. *: point of attachment. Bip(4'-NHCO-C6H4-4-CH2COOH) = N[C@@H](Cc1ccc(-c2ccc(NC(=O)c3ccc(CC(=O)O)cc3)cc2)cc1)C(=O)O; Bip(4'-NH) = O=C([C@H](Cc1ccc(-c2ccc(N[*:3])cc2)cc1)N[*:1])[*:2]; Bip(4'-COOH) = N[C@@H](Cc1ccc(-c2ccc(C(=O)O)cc2)cc1)C(=O)O; Bip(4'-NHAc) = CC(=O)Nc1ccc(-c2ccc(C[C@H](N)C(=O)O)cc2)cc1; Phe(3-CH2NH2) = O=C([C@H](Cc1cccc(CN[*:3])c1)N[*:1])[*:2]; Ala(imidazol-2-yl) = N[C@@H](Cc1ncc[nH]1)C(=O)O; Ala(morpholin-4-yl) = N[C@@H](CN1CCOCC1)C(=O)O; Benzoyl(3-OCH2COOH) = O=C(O)COc1cccc(C(=O)*)c1; Benzoyl(4-OCH2COOH) = O=C(O)COc1ccc(C(=O)*)cc1; Bip = N[C@@H](Cc1ccc(-c2ccccc2)cc1)C(=O)O; Ala(2-furyl) = N[C@@H](Cc1ccco1)C(=O)O; Tiq1c(1S) = O=C(O)[C@H]1NCCc2ccccc21; Val(3-OH) = CC(C)(O)[C@H](N)C(=O)O; Hyp = O=C(O)[C@@H]1C[C@@H](O)CN1; 2Pal = N[C@@H](Cc1ccccn1)C(=O)O; Cha = N[C@@H](CC1CCCCC1)C(=O)O; Chg = N[C@H](C(=O)O)C1CCCCC1; Tle = CC(C)(C)[C@H](N)C(=O)O; Abu = CC[C@H](N)C(=O)O; ξAze = O=C(O)C1CCN1; Sar = CNCC(=O)O

Target: TNFα (Homo sapiens, UniProt P01375)
Sequence (P01375 77-233 limits assumed): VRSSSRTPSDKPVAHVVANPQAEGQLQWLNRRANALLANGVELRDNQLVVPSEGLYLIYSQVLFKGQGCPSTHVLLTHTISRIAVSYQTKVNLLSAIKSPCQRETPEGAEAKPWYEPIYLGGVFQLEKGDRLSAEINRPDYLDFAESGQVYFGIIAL
Experiment: TNF-Induced HEK-Blue Assay
Format: cell-based
[1] = HEK-Blue-CD40L cells, NF-kB-driven secreted alkaline phosphatase reporter, TNFα 0.5 ng/ml, 18 h, read-out: TNF induced HEK-Blue assay IC50 value

Compound | IC50 [nM] | IC50 [1] [nM]
CC[C@H](C)[C@@H]1NC(=O)[C@@H](CCCNC(=N)N)NC(=O)[C@H](CC(=O)O)NC(=O)[C@H](Cc2cnc[nH]2)NC(=O)CN(C)C(=O)[C@H](Cc2ccc(-c3ccc(NC(=O)c4cccc(OCC(=O)O)c4)cc3)cc2)NC(=O)[C@H](Cc2ccc(-c3ccc(C(=O)O)cc3)cc2)NC(=O)[C@H](CC2CCCCC2)NC(=O)CSC[C@@H](C(=O)NCC(N)=O)NC(=O)[C@H](CC(C)C)NC(=O)[C@H](Cc2cnc[nH]2)NC(=O)[C@H](C(C)C)NC(=O)[C@@H]2c3ccccc3CCN2C1=O [Example 375] ({CH2CO}-[Cha][Bip(4'-COOH)][Bip(4'-NH)](Benzoyl(3-OCH2COOH))[Sar]HD[dR]I[Tiq1c(1S)]VHLCG-NH2; thioether N-13) | < 50 | 
CC(C)C[C@@H]1NC(=O)[C@H](CCCNC(=N)N)NC(=O)[C@H](C(C)C)NC(=O)[C@@H]2CCCN2C(=O)[C@H](C(C)C)NC(=O)[C@H](CCCNC(=N)N)NC(=O)[C@H](CC(=O)O)NC(=O)[C@@H]2CCCN2C(=O)CN(C)C(=O)[C@H](Cc2ccc(-c3ccccc3)cc2)NC(=O)[C@H](Cc2ccc(-c3ccccc3)cc2)NC(=O)[C@H](Cc2c[nH]c3ccccc23)NC(=O)CSC[C@@H](C(=O)NCC(N)=O)NC1=O [Example 5] ({CH2CO}-W[Bip][Bip][Sar]PDRVPVRLCG-NH2; thioether N-13) |  | 200 to 2000
CC(C)C[C@@H]1NC(=O)[C@H](Cc2ccc(O)cc2)NC(=O)[C@H](C(C)C)NC(=O)CN(C)C(=O)[C@H](C(C)C)NC(=O)[C@H](CCCNC(=N)N)NC(=O)[C@H](CC(=O)O)NC(=O)[C@H](Cc2ccc(O)cc2)NC(=O)CN(C)C(=O)[C@H](Cc2ccc(-c3ccccc3)cc2)NC(=O)[C@H](Cc2ccc(-c3ccccc3)cc2)NC(=O)[C@H](C(C)(C)O)NC(=O)CSC[C@@H](C(=O)NCC(N)=O)NC1=O [Example 140] ({CH2CO}-[Val(3-OH)][Bip][Bip][Sar]YDRV[Sar]VYLCG-NH2; thioether N-13) |  | 200 to 2000
CC(=O)Nc1ccc(-c2ccc(C[C@@H]3NC(=O)[C@H](Cc4ccc(-c5ccc(C(=O)O)cc5)cc4)NC(=O)[C@H](CN4CCOCC4)NC(=O)CSC[C@@H](C(=O)NCC(N)=O)NC(=O)[C@H](CC(C)C)NC(=O)[C@H](CCCNC(=N)N)NC(=O)[C@H](C(C)C)NC(=O)[C@@H]4CCCN4C(=O)[C@H](C(C)C)NC(=O)[C@H](CCCNC(=N)N)NC(=O)[C@H](CC(=O)O)NC(=O)[C@H](Cc4ccc(O)cc4)NC(=O)CN(C)C3=O)cc2)cc1 [Example 191] ({CH2CO}-[Ala(morpholin-4-yl)][Bip(4'-COOH)][Bip(4'-NHAc)][Sar]YDRVPVRLCG-NH2; thioether N-13) |  | 50 to 200
CC(C)C[C@@H]1NC(=O)[C@H](Cc2ccc(O)cc2)NC(=O)[C@H](C(C)C)NC(=O)[C@@H]2CCCN2C(=O)[C@H](C(C)C)NC(=O)[C@H](CCCNC(=N)N)NC(=O)[C@H](CC(=O)O)NC(=O)[C@H](Cc2ccc(O)cc2)NC(=O)CN(C)C(=O)[C@H](Cc2ccc(-c3ccccc3)cc2)NC(=O)[C@H](Cc2ccc(-c3ccc(C(=O)O)cc3)cc2)NC(=O)[C@H](CN2CCOCC2)NC(=O)CSC[C@@H](C(=O)NCC(N)=O)NC1=O [Example 121] ({CH2CO}-[Ala(morpholin-4-yl)][Bip(4'-COOH)][Bip][Sar]YDRVPVYLCG-NH2; thioether N-13) |  | 200 to 2000
CC[C@H](C)[C@@H]1NC(=O)[C@@H](CCCNC(=N)N)NC(=O)[C@H](CC(=O)O)NC(=O)[C@@H]2CCCN2C(=O)CN(C)C(=O)[C@H](Cc2ccc(-c3ccc(NC(=O)c4cccc(OCC(=O)O)c4)cc3)cc2)NC(=O)[C@H](Cc2ccc(-c3ccc(C(=O)O)cc3)cc2)NC(=O)[C@H](CC2CCCCC2)NC(=O)CSC[C@@H](C(=O)NCC(N)=O)NC(=O)[C@H](CC(C)C)NC(=O)[C@H](Cc2cnc[nH]2)NC(=O)[C@H](C(C)C)NC(=O)[C@@H]2CCCN2C1=O [Example 573] ({CH2CO}-[Cha][Bip(4'-COOH)][Bip(4'-NH)](Benzoyl(3-OCH2COOH))[Sar]PD[dR]IPVHLCG-NH2; thioether N-13) |  | 50 to 200
CC(C)C[C@@H]1NC(=O)[C@H](Cc2ccc(O)cc2)NC(=O)[C@H](C(C)C)NC(=O)[C@@H]2CCCN2C(=O)[C@H](C(C)C)NC(=O)[C@@H](CCCNC(=N)N)NC(=O)[C@H](CC(=O)O)NC(=O)[C@@H]2CCCN2C(=O)CN(C)C(=O)[C@H](Cc2ccc(-c3ccccc3)cc2)NC(=O)[C@H](Cc2ccc(-c3ccccc3)cc2)NC(=O)[C@H](CN2CCOCC2)NC(=O)CSC[C@@H](C(=O)NCC(N)=O)NC1=O [Example 77] ({CH2CO}-[Ala(morpholin-4-yl)][Bip][Bip][Sar]PD[dR]VPVYLCG-NH2; thioether N-13) |  | 200 to 2000
CC(=O)Nc1ccc(-c2ccc(C[C@@H]3NC(=O)[C@H](Cc4ccc(-c5ccccc5)cc4)NC(=O)[C@H](CN4CCOCC4)NC(=O)CSC[C@@H](C(=O)NCC(N)=O)NC(=O)[C@H](CC(C)C)NC(=O)[C@H](Cc4c[nH]cn4)NC(=O)[C@H](C4CCCCC4)NC(=O)[C@@H]4CCCN4C(=O)[C@H](C(C)C)NC(=O)[C@@H](CCCNC(=N)N)NC(=O)[C@H](CC(=O)O)NC(=O)[C@H](Cc4ccco4)NC(=O)CN(C)C3=O)cc2)cc1 [Example 524] ({CH2CO}-[Ala(morpholin-4-yl)][Bip][Bip(4'-NHAc)][Sar][Ala(2-furyl)]D[dR]VP[Chg]HLCG-NH2; thioether N-13) |  | 50 to 200
CC(C)C[C@@H]1NC(=O)[C@H](CCC(N)=O)NC(=O)[C@H](C(C)C)NC(=O)[C@@H]2CCCN2C(=O)[C@H](C(C)C)NC(=O)[C@H](CCCNC(=N)N)NC(=O)[C@H](CC(=O)O)NC(=O)[C@@H]2CCCN2C(=O)CN(C)C(=O)[C@H](Cc2ccc(-c3ccccc3)cc2)NC(=O)[C@H](Cc2ccc(-c3ccccc3)cc2)NC(=O)[C@H](Cc2ccccc2)NC(=O)CSC[C@@H](C(=O)NCC(N)=O)NC1=O [Example 18] ({CH2CO}-F[Bip][Bip][Sar]PDRVPVQLCG-NH2; thioether N-13) |  | 200 to 2000
CC(C)C[C@@H]1NC(=O)[C@H](Cc2ccc(O)cc2)NC(=O)[C@H](C(C)C)NC(=O)[C@@H]2C[C@@H](O)CN2C(=O)[C@H](C(C)C)NC(=O)[C@@H](CCCNC(=N)N)NC(=O)[C@H](CC(=O)O)NC(=O)[C@H](Cc2ccc(O)cc2)NC(=O)CN(C)C(=O)[C@H](Cc2ccc(-c3ccccc3)cc2)NC(=O)[C@H](Cc2ccc(-c3ccccc3)cc2)NC(=O)[C@H](CN2CCOCC2)NC(=O)CSC[C@@H](C(=O)NCC(N)=O)NC1=O [Example 78] ({CH2CO}-[Ala(morpholin-4-yl)][Bip][Bip][Sar]YD[dR]V[Hyp]VYLCG-NH2; thioether N-13) |  | 50 to 200

The remaining lines, values ahead:

IC50 [nM] | IC50 [1] [nM] | Compound
 | 50 to 200 | CC(=O)Nc1ccc(-c2ccc(C[C@@H]3NC(=O)[C@H](Cc4ccc(-c5ccc(C(=O)O)cc5)cc4)NC(=O)[C@H](C(C)(C)C)NC(=O)CSC[C@@H](C(=O)NCC(N)=O)NC(=O)[C@H](CC(C)C)NC(=O)[C@H](Cc4ccc(O)cc4)NC(=O)[C@H](C(C)C)NC(=O)[C@@H]4CCCN4C(=O)[C@H](C(C)C)NC(=O)[C@@H](CCCNC(=N)N)NC(=O)[C@H](CC(=O)O)NC(=O)[C@@H]4CCCN4C(=O)CN(C)C3=O)cc2)cc1 [Example 265] ({CH2CO}-[Tle][Bip(4'-COOH)][Bip(4'-NHAc)][Sar]PD[dR]VPVYLCG-NH2; thioether N-13)
 | 50 to 200 | CC[C@@H]1NC(=O)[C@@H]2CCCN2C(=O)[C@H](C(C)C)NC(=O)[C@@H](CCCNC(=N)N)NC(=O)[C@H](CC(=O)O)NC(=O)[C@H](Cc2ccc(O)cc2)NC(=O)CN(C)C(=O)[C@H](Cc2ccc(-c3ccccc3)cc2)NC(=O)[C@H](Cc2ccc(-c3ccccc3)cc2)NC(=O)[C@H](CN2CCOCC2)NC(=O)CSC[C@@H](C(=O)NCC(N)=O)NC(=O)[C@H](CC(C)C)NC(=O)[C@H](Cc2ccc(O)cc2)NC1=O [Example 161] ({CH2CO}-[Ala(morpholin-4-yl)][Bip][Bip][Sar]YD[dR]VP[Abu]YLCG-NH2; thioether N-13)
 | < 50 | CC(=O)Nc1ccc(-c2ccc(C[C@@H]3NC(=O)[C@H](Cc4ccc(-c5ccccc5)cc4)NC(=O)[C@H](CC4CCCCC4)NC(=O)CSC[C@@H](C(=O)NCC(N)=O)NC(=O)[C@H](CC(C)C)NC(=O)[C@H](Cc4ncc[nH]4)NC(=O)[C@H](C(C)C)NC(=O)C4CCN4C(=O)[C@H](C(C)C)NC(=O)[C@@H](CCCNC(=N)N)NC(=O)[C@H](CC(=O)O)NC(=O)[C@@H]4CCCN4C(=O)CN(C)C3=O)cc2)cc1 (stereo partly shown) [Example 466] ({CH2CO}-[Cha][Bip][Bip(4'-NHAc)][Sar]PD[dR]V[ξAze]V[Ala(imidazol-2-yl)]LCG-NH2; thioether N-13)
 | < 50 | CC[C@H](C)[C@@H]1NC(=O)[C@@H](CCCNC(=N)N)NC(=O)[C@H](CC(=O)O)NC(=O)[C@H](Cc2cnc[nH]2)NC(=O)CN(C)C(=O)[C@H](Cc2ccc(-c3ccc(NC(=O)c4ccc(CC(=O)O)cc4)cc3)cc2)NC(=O)[C@H](Cc2ccc(-c3ccccc3)cc2)NC(=O)[C@H](CN2CCOCC2)NC(=O)CSC[C@@H](C(=O)NCC(N)=O)NC(=O)[C@H](CC(C)C)NC(=O)[C@H](Cc2cnc[nH]2)NC(=O)[C@H](C(C)C)NC(=O)[C@@H]2CCCN2C1=O [Example 484] ({CH2CO}-[Ala(morpholin-4-yl)][Bip][Bip(4'-NHCO-C6H4-4-CH2COOH)][Sar]HD[dR]IPVHLCG-NH2; thioether N-13)
 | < 50 | CC(=O)Nc1ccc(-c2ccc(C[C@@H]3NC(=O)[C@H](Cc4ccc(-c5ccccc5)cc4)NC(=O)[C@H](CN4CCOCC4)NC(=O)CSC[C@@H](C(=O)NCC(N)=O)NC(=O)[C@H](CC(C)C)NC(=O)[C@H](Cc4cccc(CN)c4)NC(=O)[C@H](C(C)C)NC(=O)[C@@H]4CCCN4C(=O)[C@H](C(C)C)NC(=O)[C@@H](CCCNC(=N)N)NC(=O)[C@H](CC(=O)O)NC(=O)[C@H](Cc4ccccn4)NC(=O)CN(C)C3=O)cc2)cc1 [Example 171] ({CH2CO}-[Ala(morpholin-4-yl)][Bip][Bip(4'-NHAc)][Sar][2Pal]D[dR]VPV[Phe(3-CH2NH2)]LCG-NH2; thioether N-13)
 | < 50 | CC(C)C[C@@H]1NC(=O)[C@H](Cc2cnc[nH]2)NC(=O)[C@H](C(C)C)NC(=O)[C@@H]2CCCN2C(=O)[C@H](C(C)C)NC(=O)[C@@H](CCCNC(=N)N)NC(=O)[C@H](CC(=O)O)NC(=O)[C@H](Cc2ccccn2)NC(=O)CN(C)C(=O)[C@H](Cc2ccc(-c3ccc(NC(=O)c4ccc(OCC(=O)O)cc4)cc3)cc2)NC(=O)[C@H](Cc2ccc(-c3ccccc3)cc2)NC(=O)[C@H](CN2CCOCC2)NC(=O)CSC[C@@H](C(=O)NCC(N)=O)NC1=O [Example 494] ({CH2CO}-[Ala(morpholin-4-yl)][Bip][Bip(4'-NH)](Benzoyl(4-OCH2COOH))[Sar][2Pal]D[dR]VPVHLCG-NH2; thioether N-13)
